As a reminder, the EC50 is the concentration giving half of the maximal effect. The low end stands for an effect from little substance, the high end for a need for much substance.

The results in this text go back to patent US9409884B2 (Rigel Pharmaceuticals, Inc., priority 2012, dated 2016).

The structures appear in SMILES notation. A value given as a limit tells only on which side of the number the result lay.

For the assay, the target named is AMPK. Nature of the assay: AMPK activation, enzyme-linked immunosorbent assay. To be noted: Table 8, compounds of Table 1. The assay is classed as biochemical. The essentials: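 Read-out: ELISA, used to detect compound-driven activation of AMPK.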
Consider `O=C(N[C@@H]1CCN(Cc2ccncc2)C1)c1cc2cc(OC3CCN(c4ccc(C(F)(F)F)cc4)CC3)ccc2o1` [Compound 1-122, (R)-N-(1-(pyridin-4-ylmethyl)pyrrolidin-3-yl)-5-(1-(4-(trifluoromethyl)phenyl)piperidin-4-yloxy)benzofuran-2-carboxamide], for which the EC50 lay within 100 to 500 nM.
Next, `O=C(N[C@@H]1CCN(Cc2cccnc2)C1)c1cc2cc(OC3CCN(c4ccc(C(F)(F)F)cc4)CC3)ccc2o1` [Compound 1-123, (R)-N-(1-(pyridin-3-ylmethyl)pyrrolidin-3-yl)-5-(1-(4-(trifluoromethyl)phenyl)piperidin-4-yloxy)benzofuran-2-carboxamide]: 100 to 500 nM; `O=C(N[C@@H]1CCN(Cc2ccccn2)C1)c1cc2cc(OC3CCN(c4ccc(C(F)(F)F)cc4)CC3)ccc2o1` [Compound 1-124, (R)-N-(1-(pyridin-2-ylmethyl)pyrrolidin-3-yl)-5-(1-(4-(trifluoromethyl)phenyl)piperidin-4-yloxy)benzofuran-2-carboxamide]: 1000 to 5000 nM.
Next, `O=C(N[C@@H]1CCN(C(=O)c2ccncc2)C1)c1cc2cc(OC3CCN(c4ccc(C(F)(F)F)cc4)CC3)ccc2o1` [Compound 1-125, (R)-N-(1-isonicotinoylpyrrolidin-3-yl)-5-(1-(4-(trifluoromethyl)phenyl)piperidin-4-yloxy)benzofuran-2-carboxamide]: 1000 to 5000 nM.
Under `O=C(N[C@@H]1CCN(S(=O)(=O)c2cccnc2)C1)c1cc2cc(OC3CCN(c4ccc(C(F)(F)F)cc4)CC3)ccc2o1` [Compound 1-126, (R)-N-(1-(pyridin-3-ylsulfonyl)pyrrolidin-3-yl)-5-(1-(4-(trifluoromethyl)phenyl)piperidin-4-yloxy)benzofuran-2-carboxamide] stands 1000 to 5000 nM.
Turning to `CC(C)(C)OC(=O)N1CC[C@H](NC(=O)c2cc3cc(OC4CCN(Cc5ccc(Cl)cc5)CC4)ccc3o2)C1` [Compound 1-127, (S)-tert-butyl 3-(5-(1-(4-chlorobenzyl)piperidin-4-yloxy)benzofuran-2-carboxamido) pyrrolidine-1-carboxylate], the EC50 lay within 1000 to 5000 nM.
Under `O=C(N[C@H]1CCNC1)c1cc2cc(OC3CCN(Cc4ccc(Cl)cc4)CC3)ccc2o1` [Compound 1-128, (S)-5-(1-(4-chlorobenzyl)piperidin-4-yloxy)-N-(pyrrolidin-3-yl)benzofuran-2-carboxamide] stands over 10000 nM; under `O=C(N[C@H]1CCN(Cc2ccncc2)C1)c1cc2cc(OC3CCN(Cc4ccc(Cl)cc4)CC3)ccc2o1` [Compound 1-129, (S)-5-(1-(4-chlorobenzyl)piperidin-4-yloxy)-N-(1-(pyridin-4-ylmethyl)pyrrolidin-3-yl)benzofuran-2-carboxamide], 1000 to 5000 nM; under `O=C(N[C@H]1CCN(Cc2cccnc2)C1)c1cc2cc(OC3CCN(Cc4ccc(Cl)cc4)CC3)ccc2o1` [Compound 1-130, (S)-5-(1-(4-chlorobenzyl)piperidin-4-yloxy)-N-(1-(pyridin-3-ylmethyl)pyrrolidin-3-yl)benzofuran-2-carboxamide], 1000 to 5000 nM.
Next, `NC(=O)c1ccc(CN2CCC(Oc3ccc4oc(C(=O)NC5CCN(Cc6ccncc6)CC5)cc4c3)CC2)cc1` [Compound 1-131, 5-(1-(4-carbamoylbenzyl)piperidin-4-yloxy)-N-(1-(pyridin-4-ylmethyl)piperidin-4-yl)benzofuran-2-carboxamide]: 1000 to 5000 nM.
Under `O=C(NC1CCN(Cc2ccncc2)CC1)c1cc2cc(OC3CCN(c4ccc(OC(F)(F)F)cc4)CC3)ccc2s1` [Compound 1-137, N-(1-(pyridin-4-ylmethyl)piperidin-4-yl)-5-(1-(4-(trifluoromethoxy)phenyl)piperidin-4-yloxy)benzo [b]thiophene-2-carboxamide] stands under 100 nM; under `O=C(NC1CCN(Cc2ccncc2)CC1)c1cc2cc(OC3CCN(c4ccc(C(F)(F)F)cc4)CC3)ccc2s1` [Compound 1-138, N-(1-(pyridin-4-ylmethyl)piperidin-4-yl)-5-(1-(4-(trifluoromethyl)phenyl)piperidin-4-yloxy)benzo [b]thiophene-2-carboxamide], under 100 nM.
As to `CC(C)(C)OC(=O)N1CCC(NC(=O)c2cc3ccc(OC4CCN(c5ccc(C(F)(F)F)cc5)CC4)cc3s2)CC1` [Compound 1-140, tert-butyl 4-(6-(1-(4-(trifluoromethyl)phenyl)piperidin-4-yloxy)benzo[b]thiophene-2-carboxamido) piperidine-1-carboxylate], the EC50 is 500 to 1000 nM.
Under `O=C(NC1CCNCC1)c1cc2ccc(OC3CCN(c4ccc(C(F)(F)F)cc4)CC3)cc2s1` [Compound 1-141, N-(piperidin-4-yl)-6-(1-(4-(trifluoromethyl)phenyl)piperidin-4-yloxy)benzo[b] thiophene-2-carboxamide] stands 100 to 500 nM; under `N#Cc1ccc(CN2CCC(NC(=O)c3cc4ccc(OC5CCN(c6ccc(C(F)(F)F)cc6)CC5)cc4s3)CC2)cc1` [Compound 1-144, N-(1-(4-cyanobenzyl)piperidin-4-yl)-6-(1-(4-(trifluoromethyl)phenyl)piperidin-4-yloxy)benzo [b]thiophene-2-carboxamide], under 100 nM; under `N#Cc1cccc(CN2CCC(NC(=O)c3cc4ccc(OC5CCN(c6ccc(C(F)(F)F)cc6)CC5)cc4s3)CC2)c1` [Compound 1-145, N-(1-(3-cyanobenzyl)piperidin-4-yl)-6-(1-(4-(trifluoromethyl)phenyl)piperidin-4-yloxy)benzo [b]thiophene-2-carboxamide], 100 to 500 nM.
`N#Cc1ccccc1CN1CCC(NC(=O)c2cc3ccc(OC4CCN(c5ccc(C(F)(F)F)cc5)CC4)cc3s2)CC1` [Compound 1-146, N-(1-(2-cyanobenzyl)piperidin-4-yl)-6-(1-(4-(trifluoromethyl)phenyl)piperidin-4-yloxy)benzo [b]thiophene-2-carboxamide] showed an EC50 of 100 to 500 nM.
Compound `CC(C)(C)OC(=O)N1CCC(NC(=O)c2sc3cc(OC4CCN(c5ccc(C(F)(F)F)cc5)CC4)ccc3c2Cl)CC1` [Compound 1-147, tert-butyl 4-(3-chloro-6-(1-(4-(trifluoromethyl)phenyl)piperidin-4-yloxy)benzo [b]thiophene-2-carboxamido) piperidine-1-carboxylate] came in with an EC50 of 1000 to 5000 nM.
On to `O=C(NC1CCNCC1)c1sc2cc(OC3CCN(c4ccc(C(F)(F)F)cc4)CC3)ccc2c1Cl` [Compound 1-148, 3-chloro-N-(piperidin-4-yl)-6-(1-(4-(trifluoromethyl)phenyl)piperidin-4-yloxy)benzo [b]thiophene-2-carboxamide], for which the EC50 is over 10000 nM.
Under `CC(C)(C)OC(=O)N1CCC(NC(=O)c2cc3cc(OC4CCN(c5ccc(C(F)(F)F)cc5)CC4)ccc3s2)CC1` [Compound 1-149, tert-butyl 4-(5-(1-(4-(trifluoromethyl)phenyl)piperidin-4-yloxy)benzo [b]thiophene-2-carboxamido) piperidine-1-carboxylate] stands under 100 nM.
Under `O=C(NC1CCNCC1)c1cc2cc(OC3CCN(c4ccc(C(F)(F)F)cc4)CC3)ccc2s1` [Compound 1-150, N-(piperidin-4-yl)-5-(1-(4-(trifluoromethyl)phenyl)piperidin-4-yloxy)benzo [b]thiophene-2-carboxamide] stands 1000 to 5000 nM; under `O=C(NC1CCN(Cc2ccncc2)CC1)c1sc2cc(OC3CCN(c4ccc(C(F)(F)F)cc4)CC3)ccc2c1Cl` [Compound 1-151, 3-chloro-N-(1-(pyridin-4-ylmethyl)piperidin-4-yl)-6-(1-(4-(trifluoromethyl)phenyl)piperidin-4-yloxy)benzo[b] thiophene-2-carboxamide], under 100 nM.
For the compound `O=C(NC1CCN(Cc2cccnc2)CC1)c1sc2cc(OC3CCN(c4ccc(C(F)(F)F)cc4)CC3)ccc2c1Cl` [Compound 1-152, 3-chloro-N-(1-(pyridin-3-ylmethyl)piperidin-4-yl)-6-(1-(4-(trifluoromethyl)phenyl)piperidin-4-yloxy)benzo[b] thiophene-2-carboxamide], the EC50 was under 100 nM.
Next, `O=C(NC1CCN(Cc2ccccn2)CC1)c1sc2cc(OC3CCN(c4ccc(C(F)(F)F)cc4)CC3)ccc2c1Cl` [Compound 1-153, 3-chloro-N-(1-(pyridin-2-ylmethyl)piperidin-4-yl)-6-(1-(4-(trifluoromethyl)phenyl)piperidin-4-yloxy)benzo[b] thiophene-2-carboxamide]: 100 to 500 nM.
Next, `N#Cc1ccc(CN2CCC(NC(=O)c3sc4cc(OC5CCN(c6ccc(C(F)(F)F)cc6)CC5)ccc4c3Cl)CC2)cc1` [Compound 1-154, 3-chloro-N-(1-(4-cyanobenzyl)piperidin-4-yl)-6-(1-(4-(trifluoromethyl)phenyl)piperidin-4-yloxy)benzo[b] thiophene-2-carboxamide]: under 100 nM.
As to `O=C(NC1CCN(C(=O)c2ccncc2)CC1)c1sc2cc(OC3CCN(c4ccc(C(F)(F)F)cc4)CC3)ccc2c1Cl` [Compound 1-155, 3-chloro-N-(1-isonicotinoylpiperidin-4-yl)-6-(1-(4-(trifluoromethyl)phenyl)piperidin-4-yloxy)benzo[b] thiophene-2-carboxamide], the EC50 was under 100 nM.
The compound `CC(C)(C)OC(=O)N1CCC(NC2CCc3cc(OC4CCN(c5ccc(C(F)(F)F)cc5)CC4)ccc32)CC1` (centres unmarked) [Compound 1-156, tert-butyl 4-(5-(1-(4-(trifluoromethyl)phenyl)piperidin-4-yloxy)-2,3-dihydro-1H-inden-1-ylamino)piperidine-1-carboxylate] registered an EC50 of 100 to 500 nM.
Next, `FC(F)(F)c1ccc(N2CCC(Oc3ccc4c(c3)CCC4NC3CCNCC3)CC2)cc1` (centres unmarked) [Compound 1-157, N-(5-(1-(4-(trifluoromethyl)phenyl)piperidin-4-yloxy)-2,3-dihydro-1H-inden-1-yl)piperidin-4-amine]: 1000 to 5000 nM.
Under `FC(F)(F)c1ccc(N2CCC(Oc3ccc4c(c3)CCC4NC3CCN(Cc4ccncc4)CC3)CC2)cc1` (centres unmarked) [Compound 1-158, 1-(pyridin-4-ylmethyl)-N-(5-(1-(4-(trifluoromethyl)phenyl)piperidin-4-yloxy)-2,3-dihydro-1H-inden-1-yl)piperidin-4-amine] stands 100 to 500 nM.
